Measured values reported in patent publication US9290777B2, “Putative cytokinin receptor and methods for use thereof” (NATIONAL UNIVERSITY OF SINGAPORE, priority 2007, dated 2016).
Entries after “also recorded” stand apart in the source; their conditions may differ.

System: KNAT1
Assay: qRT-PCR of cytokinin responsive gene after BA pulse, fold change vs untreated wild type
Type: cell-based, Arabidopsis thaliana
Procedure: For quantitative real-time PCR (qRT-PCR) analysis of cytokinin-inducible gene expression, seeds were germinated on MS medium with 3% (w/v) sucrose and grown for 6 days. Cytokinin treatment was carried out by incubating seedlings in the same MS+sucrose liquid medium (no agar) supplemented with 0, 0.01, 0.1, 1 or 5 μM [solubilized in 0.1% dimethylsulfoxide (DMSO) and diluted with the MS medium] for 5 min, 15 min, 30 min or 1 h. The control seedlings were incubated with DMSO (0.1%, the concentration used to dissolve cytokinins for the treatment) for the corresponding durations and used for expression analysis. Before RNA preparation, WT, OE and AS seedlings were pooled and stored in RNAlater solution (Qiagen, Valencia, Calif.). Total RNA was extracted using the Rneasy Plant Mini Kit (Qiagen). SYBRgreen RT-PCR reagents (Applied Biosystems) were used to synthesize double-stranded cDNA. The number of transcripts present in biological replicates each of WT, OE and AS seedlings, with or without BA and DMSO, was determined from three independent replicates. Fold induction of the transcripts was calculated according to the manufacturer's instructions (ABI Prism 7700 Sequence Detection System, User Bulletin #2).

c1ccc(CNc2ncnc3nc[nH]c23)cc1 [benzyladenine]
KNAT1 transcripts in OE lines compared to untreated wild type (5 μM BA, 1 h, OE lines (e.g. OE1, OE12), listed as BA): less than a two fold change; also recorded: no significant difference | KNAT1 fold change (BA 0.01 μM, 5 min, AS1, ↑ up): 8.12↑ | KNAT1 fold change (BA 0.01 μM, 5 min, AS8, ↑ up): 9.1↑ | KNAT1 fold change (BA 0.01 μM, 5 min, AS21, ↑ up): 10.01↑ | KNAT1 fold change (BA 0.01 μM, 5 min, OE1, ↓ down): 4.01↓ | KNAT1 fold change (BA 0.01 μM, 5 min, OE12, ↓ down): 4.87↓ | KNAT1 fold change (BA 0.01 μM, 5 min, OE18, ↓ down): 6.56↓ | KNAT1 fold change (BA 0.01 μM, 5 min, Wild type, ↑ up): 2.13↑ | KNAT1 fold change (BA 0.01 μM, 15 min, AS1, ↑ up): 8.57↑ | KNAT1 fold change (BA 0.01 μM, 15 min, AS8, ↑ up): 9.21↑ | KNAT1 fold change (BA 0.01 μM, 15 min, AS21, ↑ up): 10.39↑ | KNAT1 fold change (BA 0.01 μM, 15 min, OE1, ↓ down): 3.86↓ | KNAT1 fold change (BA 0.01 μM, 15 min, OE12, ↓ down): 4.56↓ | KNAT1 fold change (BA 0.01 μM, 15 min, OE18, ↓ down): 6.32↓ | KNAT1 fold change (BA 0.01 μM, 15 min, Wild type, ↑ up): 2.67↑ | KNAT1 fold change (BA 0.01 μM, 30 min, AS1, ↑ up): 8.98↑ | KNAT1 fold change (BA 0.01 μM, 30 min, AS8, ↑ up): 9.86↑ | KNAT1 fold change (BA 0.01 μM, 30 min, AS21, ↑ up): 10.53↑ | KNAT1 fold change (BA 0.01 μM, 30 min, OE1, ↓ down): 3.41↓ | KNAT1 fold change (BA 0.01 μM, 30 min, OE12, ↓ down): 4.13↓ | KNAT1 fold change (BA 0.01 μM, 30 min, OE18, ↓ down): 6.13↓ | KNAT1 fold change (BA 0.01 μM, 30 min, Wild type, ↑ up): 2.98↑ | KNAT1 fold change (BA 0.01 μM, 1 h, AS1, ↑ up): 9.20↑ | KNAT1 fold change (BA 0.01 μM, 1 h, AS8, ↑ up): 9.98↑ | KNAT1 fold change (BA 0.01 μM, 1 h, AS21, ↑ up): 11.99↑ | KNAT1 fold change (BA 0.01 μM, 1 h, OE1, ↓ down): 3.01↓ | KNAT1 fold change (BA 0.01 μM, 1 h, OE12, ↓ down): 3.06↓ | KNAT1 fold change (BA 0.01 μM, 1 h, OE18, ↓ down): 5.98↓ | KNAT1 fold change (BA 0.01 μM, 1 h, Wild type, ↑ up): 3.15↑ | KNAT1 fold change (BA 0.1 μM, 5 min, AS1, ↑ up): 9.14↑ | KNAT1 fold change (BA 0.1 μM, 5 min, AS8, ↑ up): 10.12↑ | KNAT1 fold change (BA 0.1 μM, 5 min, AS21, ↑ up): 11.11↑ | KNAT1 fold change (BA 0.1 μM, 5 min, OE1, ↓ down): 3.56↓ | KNAT1 fold change (BA 0.1 μM, 5 min, OE12, ↓ down): 3.91↓ | KNAT1 fold change (BA 0.1 μM, 5 min, OE18, ↓ down): 5.89↓ | KNAT1 fold change (BA 0.1 μM, 5 min, Wild type, ↑ up): 3.36↑ | KNAT1 fold change (BA 0.1 μM, 15 min, AS1, ↑ up): 9.39↑ | KNAT1 fold change (BA 0.1 μM, 15 min, AS8, ↑ up): 10.32↑ | KNAT1 fold change (BA 0.1 μM, 15 min, AS21, ↑ up): 11.26↑ | KNAT1 fold change (BA 0.1 μM, 15 min, OE1, ↓ down): 3.24↓ | KNAT1 fold change (BA 0.1 μM, 15 min, OE12, ↓ down): 3.71↓ | KNAT1 fold change (BA 0.1 μM, 15 min, OE18, ↓ down): 5.72↓ | KNAT1 fold change (BA 0.1 μM, 15 min, Wild type, ↑ up): 3.58↑ | KNAT1 fold change (BA 0.1 μM, 30 min, AS1, ↑ up): 9.69↑ | KNAT1 fold change (BA 0.1 μM, 30 min, AS8, ↑ up): 10.57↑ | KNAT1 fold change (BA 0.1 μM, 30 min, AS21, ↑ up): 11.48↑ | KNAT1 fold change (BA 0.1 μM, 30 min, OE1, ↓ down): 3.12↓ | KNAT1 fold change (BA 0.1 μM, 30 min, OE12, ↓ down): 3.59↓ | KNAT1 fold change (BA 0.1 μM, 30 min, OE18, ↓ down): 5.36↓ | KNAT1 fold change (BA 0.1 μM, 30 min, Wild type, ↑ up): 3.89↑ | KNAT1 fold change (BA 0.1 μM, 1 h, AS1, ↑ up): 9.98↑ | KNAT1 fold change (BA 0.1 μM, 1 h, AS8, ↑ up): 10.99↑ | KNAT1 fold change (BA 0.1 μM, 1 h, AS21, ↑ up): 11.83↑ | KNAT1 fold change (BA 0.1 μM, 1 h, OE1, ↓ down): 2.96↓ | KNAT1 fold change (BA 0.1 μM, 1 h, OE12, ↓ down): 3.21↓ | KNAT1 fold change (BA 0.1 μM, 1 h, OE18, ↓ down): 5.01↓ | KNAT1 fold change (BA 0.1 μM, 1 h, Wild type, ↑ up): 3.99↑ | KNAT1 fold change (BA 1.0 μM, 5 min, AS1, ↑ up): 10.43↑ | KNAT1 fold change (BA 1.0 μM, 5 min, AS8, ↑ up): 11.01↑ | KNAT1 fold change (BA 1.0 μM, 5 min, AS21, ↑ up): 11.93↑ | KNAT1 fold change (BA 1.0 μM, 5 min, OE1, ↓ down): 2.76↓ | KNAT1 fold change (BA 1.0 μM, 5 min, OE12, ↓ down): 3.19↓ | KNAT1 fold change (BA 1.0 μM, 5 min, OE18, ↓ down): 4.36↓ | KNAT1 fold change (BA 1.0 μM, 5 min, Wild type, ↑ up): 4.1↑ | KNAT1 fold change (BA 1.0 μM, 15 min, AS1, ↑ up): 10.68↑ | KNAT1 fold change (BA 1.0 μM, 15 min, AS8, ↑ up): 11.43↑ | KNAT1 fold change (BA 1.0 μM, 15 min, AS21, ↑ up): 12.02↑ | KNAT1 fold change (BA 1.0 μM, 15 min, OE1, ↓ down): 2.51↓ | KNAT1 fold change (BA 1.0 μM, 15 min, OE12, ↓ down): 3.01↓ | KNAT1 fold change (BA 1.0 μM, 15 min, OE18, ↓ down): 4.21↓ | KNAT1 fold change (BA 1.0 μM, 15 min, Wild type, ↑ up): 4.31↑ | KNAT1 fold change (BA 1.0 μM, 30 min, AS1, ↑ up): 10.73↑ | KNAT1 fold change (BA 1.0 μM, 30 min, AS8, ↑ up): 11.69↑ | KNAT1 fold change (BA 1.0 μM, 30 min, AS21, ↑ up): 12.35↑ | KNAT1 fold change (BA 1.0 μM, 30 min, OE1, ↓ down): 2.29↓ | KNAT1 fold change (BA 1.0 μM, 30 min, OE12, ↓ down): 2.89↓ | KNAT1 fold change (BA 1.0 μM, 30 min, OE18, ↓ down): 4.01↓ | KNAT1 fold change (BA 1.0 μM, 30 min, Wild type, ↑ up): 4.59↑ | KNAT1 fold change (BA 1.0 μM, 1 h, AS1, ↑ up): 11.01↑ | KNAT1 fold change (BA 1.0 μM, 1 h, AS8, ↑ up): 11.93↑ | KNAT1 fold change (BA 1.0 μM, 1 h, AS21, ↑ up): 12.76↑ | KNAT1 fold change (BA 1.0 μM, 1 h, OE1, ↓ down): 2.01↓ | KNAT1 fold change (BA 1.0 μM, 1 h, OE12, ↓ down): 2.16↓ | KNAT1 fold change (BA 1.0 μM, 1 h, OE18, ↓ down): 3.92↓ | KNAT1 fold change (BA 1.0 μM, 1 h, Wild type, ↑ up): 4.87↑ | KNAT1 fold change (BA 5.0 μM, 5 min, AS1, ↑ up): 10.98↑ | KNAT1 fold change (BA 5.0 μM, 5 min, AS8, ↑ up): 11.98↑ | KNAT1 fold change (BA 5.0 μM, 5 min, AS21, ↑ up): 12.43↑ | KNAT1 fold change (BA 5.0 μM, 5 min, OE1, ↓ down): 2.19↓ | KNAT1 fold change (BA 5.0 μM, 5 min, OE12, ↓ down): 2.87↓ | KNAT1 fold change (BA 5.0 μM, 5 min, OE18, ↓ down): 3.45↓ | KNAT1 fold change (BA 5.0 μM, 5 min, Wild type, ↑ up): 5.52↑ | KNAT1 fold change (BA 5.0 μM, 15 min, AS1, ↑ up): 11.01↑ | KNAT1 fold change (BA 5.0 μM, 15 min, AS8, ↑ up): 12.07↑ | KNAT1 fold change (BA 5.0 μM, 15 min, AS21, ↑ up): 12.54↑ | KNAT1 fold change (BA 5.0 μM, 15 min, OE1, ↓ down): 2.01↓ | KNAT1 fold change (BA 5.0 μM, 15 min, OE12, ↓ down): 2.62↓ | KNAT1 fold change (BA 5.0 μM, 15 min, OE18, ↓ down): 3.18↓ | KNAT1 fold change (BA 5.0 μM, 15 min, Wild type, ↑ up): 5.69↑ | KNAT1 fold change (BA 5.0 μM, 30 min, AS1, ↑ up): 11.23↑ | KNAT1 fold change (BA 5.0 μM, 30 min, Wild type, ↑ up): 5.89↑ | KNAT1 transcripts, dose dependence (BA 0.01-5 μM pulse, 5 min-1 h): dose-dependent increase
